Test results taken from US7714014B2, “Targeting GLI proteins in human cancer by small molecules” (The Regents of the University of California, priority 2005, dated 2010).

Tests used:
[1] = tested on: A375 (melanoma); assay: Apoptosis analysis (Annexin V FITC, flow cytometry); type: cell-based, human
Method: (§1) Apoptosis was analyzed by using an Annexin V FITC Apoptosis Detection Kit (Biosource, Camarillo, Calif.), according to the manufacturer's protocol. After treatment with different small molecule compounds at various concentrations for about 3 days, cells were harvested by trypsinization, stained and immediately analyzed by flow cytometry (FACScan; Decton Dickinson, Franklin Lake, N.J.). Early apoptotic cells with exposed phosphatidylserine but intact cell membranes will bind to Annexin V-FITC, but not propidium iodide (PI). Cells in necrotic or late apoptotic stages will be labeled with both Annexin V-FITC and PI. “% apoptotic cells” or “% apoptosis” refers to the combined early and late apoptotic cells.
(§2) Dose titration experiments of small molecule compound FN1-8 was performed using the melanoma cell lines A375, G361, SK-Mel-2, SK-Mel-5, and SK-Mel-28. A 375 cells were plated in 6-well plates and incubated with DM SO (control) or 2 μM, 5 μM, 10 μM, 20 μM, and 40 μM of FN1-8, respectively, for 3 days. A dramatic and dose-dependent cell killing in this cell line was observed when FN1-8 was added at 10 μM or more (data not shown). […] After 4 days of incubation with 20 μM FN1-8, approximately 20% of the Malme-3M cells, 28% of SK-Mel-2 cells, 36% of SK-Mel-5 cells, 41% of A375 cells, and 17% of G361 cells underwent apoptosis, while less than 3% of normal skin fibroblast cells underwent apoptosis under the same conditions (Table 3).

[2] = tested on: G361 (melanoma); assay: as above; type: cell-based, human
Method: as §1, §2

[3] = tested on: Malme-3 (normal skin cells); assay: as above; type: cell-based, human; conditions: 10 μM
Method: as §1, §2

[4] = tested on: Malme-3M (melanoma); assay: as above; type: cell-based, human; conditions: 10 μM
Method: as §1, §2

[5] = tested on: SK-Mel-2 (melanoma); assay: as above; type: cell-based, human
Method: as §1, §2

[6] = tested on: SK-Mel-28 (melanoma); assay: as above; type: cell-based, human
Method: as §1, §2

[7] = tested on: SK-Mel-5 (melanoma); assay: as above; type: cell-based, human
Method: as §1, §2

[8] = tested on: NSCLC cells A549, H358, and H322; assay: Time course of cell survival (flow cytometry); type: cell-based, human
Method: The time course of cell survival in NSCLC cells A549, H358, and H322 after administration of small molecule compound FN1-8 was analyzed. A549 cells were incubated with 10 μM and 20 μM FN1-8, and H358 and H322 cells were incubated with 15 μM and 30 μM FN1-8, respectively. Then flow cytometry was used to examine the percentage of living and dead cells at different time points. […] In H358 cells, the cell killing effect of FN1-8 is already apparent by 1 day, and in H322 cells by 2 days. (data not shown).

[9] = tested on: melanoma cell lines A375, G361, SK-Mel-2, SK-Mel-5, and SK-Mel-28; assay: Dose titration, cell killing; type: cell-based, human; conditions: A375, 2-40 μM tested, 3 days; similar effect in G361, SK-Mel-2, SK-Mel-5, SK-Mel-28
Method: (§3) Typically, the small molecule compounds of the present invention were dissolved in DMSO at a concentration of 30 mM. The small molecule compounds were then tested under cell culture conditions at different concentrations ranging from 0, 10, 30, 50, to 100 uM. To determine cell survival after treatment, the cells were incubated with the small molecule compounds in 6-well plates for about 3 days. After removal of the cell culture medium, 1-ml of 0.5% crystal violet solution (prepared in 20% ethanol and 20% methanol) was added to stain the cells for 5 min. Then the crystal violet solution was rinsed clean with tap water. Cell survival was estimated based on the density of crystal stained plates.
Dose titration experiments of small molecule compound FN1-8 was performed using the melanoma cell lines A375, G361, SK-Mel-2, SK-Mel-5, and SK-Mel-28. A 375 cells were plated in 6-well plates and incubated with DM SO (control) or 2 μM, 5 μM, 10 μM, 20 μM, and 40 μM of FN1-8, respectively, for 3 days. A dramatic and dose-dependent cell killing in this cell line was observed when FN1-8 was added at 10 μM or more (data not shown). […]

[10] = tested on: human normal skin fibroblast cells (Malme-3); assay: Time course of cell survival (flow cytometry); type: cell-based; conditions: 10 μM or 20 μM, after 6 days
Method: To investigate whether small molecule compounds of the present invention, e.g., FN1-8, specifically kill cancer cells, time course experiments of cell survival after administration of 10 μM and 20 μM of FN1-8 were also conducted using human normal skin fibroblast cells (Malme-3).

[11] = tested on: human glioma cell line U87; assay: Cell survival assay (crystal violet); type: cell-based; conditions: U87, 50 μM
Method: as §3
The cell-based cytotoxicity assay described herein was used to determine the effect of small molecule compounds FN1-5 and FN1-8 in the human glioma cell line U87. Viability of U87 cells was analyzed after treatment with 30 and 50 μM FN1-5 and 10, 30, and 50 μM FN1-8.

SMILES: O=C(NCCc1ccc(O)cc1)C1C(c2ccccc2)=NN(c2ccccc2)C1c1ccccc1 (stereo not drawn) [FN1-8, N-(2-(4-Hydroxyphenyl)ethyl)-1,3,5-triphenyl-4,5-dihydro-pyrazole-4-carboxyamide]
- % of apoptotic cells ([1]; A375, 10 μM): 35.8%
- % of apoptotic cells ([1]; A375, 20 μM, 4 days of incubation): 39.7%
- % of apoptotic cells ([2]; G361, 10 μM): 7.5%
- % of apoptotic cells ([2]; G361, 20 μM, 4 days of incubation): 15.5%
- % of apoptotic cells [3]: 2.1%
- % of apoptotic cells [4]: 10.5%
- % of apoptotic cells ([5]; SK-Mel-2, 10 μM): 9%
- % of apoptotic cells ([5]; SK-Mel-2, 20 μM, 4 days of incubation): 25.3%
- % of apoptotic cells ([6]; SK-Mel-28, 10 μM): 7.7%
- % of apoptotic cells ([6]; SK-Mel-28, 20 μM): 11.8%
- % of apoptotic cells ([7]; SK-Mel-5, 10 μM): 7.9%
- % of apoptotic cells ([7]; SK-Mel-5, 20 μM, 4 days of incubation): 34.9%
- time after which dose-dependent cell killing effect is shown ([8]; A549, 10 μM and 20 μM): 3 days
- time by which cell killing effect is apparent ([8]; H322, 15 μM and 30 μM): ≤ 2 days
- time by which cell killing effect is apparent ([8]; H358, 15 μM and 30 μM): ≤ 1 days
- concentration at which dramatic and dose-dependent cell killing was observed [9]: ≥ 10 µM
- cell killing in normal cells [10]: no cell killing
- cell killing [11]: dramatic cell killing
